Test results published in paper PMC9421654, “Discovery of Substituted Di(pyridin-2-yl)-1,2,4-thiadiazol-5-amines as Novel Macrofilaricidal Compounds for the Treatment of Human Filarial Infections” (Journal of Medicinal Chemistry, 2022).
≈ marks a conversion by molar mass, not a printed value. Where “and” joins values, the source holds several entries; their conditions need not be identical. Equal values may be shown once. Read-outs that look alike come from different tables or passages of the source. Marks after values point to notes of the source that are not given here.

Key:
[1] = system: O. gutturosa adult male worms; assay: O. gutturosa adult worm ex vivo assay, motility; format: cell-based, Onchocerca gutturosa; settings: Onchocerca gutturosa
Method in brief: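 Adult male O. gutturosa from naturally infected cattle were cultured in supplemented MEM at 37 °C, 5% CO2, with four worms per concentration in serial 1-in-4 dilutions. Motility (0–10 scale) was scored every 24 h to 120 h. EC50 (geomean, n=2) for motility reduction came from 4PL fits, and viability was checked by MTT at 120 h.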

[2] = system: O. gutturosa adult male worms; assay: O. gutturosa adult worm ex vivo assay, MTT/formazan viability; format: cell-based, Onchocerca gutturosa; settings: Onchocerca gutturosa, supplement; SD in brackets in the PDF table; read-out: O. gutturosa EC50 (uM) MTT viability inhibition
Method in brief: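 Adult male worms from naturally infected Gambian cattle were kept individually in MEM with 10% newborn calf serum at 37 °C, 5% CO2; four worms per concentration. Motility was scored 0-10 every 24 h to 120 h as a percentage of maximum, with ≥50% reduction versus untreated counted active. Afterwards, MTT (0.5 mg/mL, 30 min) formazan was read at 490 nm.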

[3] = Kinetic solubility measurement; format: physicochemical; settings: 10 mM DMSO stock solutions
Method in brief: (§1)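 Human and rat liver microsomes (0.3 mg/mL) with 1 mM NADPH and 3µM substrate, 30 minutes at 37 °C in pH 7.4 phosphate/MgCl2, triplicate; LC-MS/MS percentage remaining. LogD: octanol/aqueous buffer (pH 7.4, 2.2, 6.8, 5), 24 h shaking at room temperature. Kinetic solubility: 200 µM, 2% DMSO, 24 h, filtered.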

[4] = LogD measurement (octanol-water); format: physicochemical
Method in brief: as §1

P-glycoprotein (MDR1) = target: T1, P-glycoprotein (MDR1) (Homo sapiens, UniProt P08183); assay: MDCK/MDR1 permeability and efflux; format: in vitro ADME; settings: dog
T1 construct: expressed in transfected cells; host or cells: MDCK (Madin Darby canine kidney) cells
T1 sequence (P08183 whole entry): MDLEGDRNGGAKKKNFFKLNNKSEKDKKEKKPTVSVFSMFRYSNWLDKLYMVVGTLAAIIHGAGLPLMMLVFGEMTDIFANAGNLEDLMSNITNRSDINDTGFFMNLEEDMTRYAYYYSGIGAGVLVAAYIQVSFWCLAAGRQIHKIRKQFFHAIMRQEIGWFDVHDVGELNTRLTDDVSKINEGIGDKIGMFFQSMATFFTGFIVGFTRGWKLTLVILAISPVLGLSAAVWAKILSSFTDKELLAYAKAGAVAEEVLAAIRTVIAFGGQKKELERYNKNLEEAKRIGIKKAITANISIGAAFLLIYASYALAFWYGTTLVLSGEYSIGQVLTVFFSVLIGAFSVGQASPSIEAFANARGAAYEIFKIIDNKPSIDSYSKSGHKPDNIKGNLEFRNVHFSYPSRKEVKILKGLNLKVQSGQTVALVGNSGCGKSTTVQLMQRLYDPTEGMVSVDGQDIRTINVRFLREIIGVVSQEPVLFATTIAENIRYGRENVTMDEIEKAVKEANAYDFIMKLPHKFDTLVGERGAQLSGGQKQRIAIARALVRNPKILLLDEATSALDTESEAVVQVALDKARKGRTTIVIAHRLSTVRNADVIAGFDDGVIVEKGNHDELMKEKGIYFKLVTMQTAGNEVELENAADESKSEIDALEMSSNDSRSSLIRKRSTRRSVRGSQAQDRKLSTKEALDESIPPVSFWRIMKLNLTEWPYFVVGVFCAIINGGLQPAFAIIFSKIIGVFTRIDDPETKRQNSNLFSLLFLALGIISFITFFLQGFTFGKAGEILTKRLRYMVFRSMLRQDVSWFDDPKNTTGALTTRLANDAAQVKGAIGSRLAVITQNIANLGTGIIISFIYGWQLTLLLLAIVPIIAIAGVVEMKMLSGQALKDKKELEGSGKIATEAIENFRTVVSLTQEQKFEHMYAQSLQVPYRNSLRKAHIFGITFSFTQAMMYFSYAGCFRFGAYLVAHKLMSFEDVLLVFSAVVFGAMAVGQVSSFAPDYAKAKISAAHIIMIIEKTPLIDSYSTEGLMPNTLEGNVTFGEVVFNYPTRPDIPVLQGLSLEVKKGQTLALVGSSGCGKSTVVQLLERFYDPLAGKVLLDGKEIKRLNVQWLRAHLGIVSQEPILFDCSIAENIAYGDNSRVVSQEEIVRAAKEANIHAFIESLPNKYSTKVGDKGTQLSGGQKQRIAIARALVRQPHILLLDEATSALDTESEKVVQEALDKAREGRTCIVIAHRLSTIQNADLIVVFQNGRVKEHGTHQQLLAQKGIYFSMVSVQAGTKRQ
From the text: (§2) Our approach was to target compounds with efflux ratio (ER) >2.5 in the MDCK cell line transfected with MDR1 (multidrug resistance-1 transfected Madin Darby canine kidney cell line). […] Our goal was to impart structural elements designed to impart Pgp recognition.

P-gp (MDR1) = target: T2, P-gp (MDR1) (Homo sapiens, UniProt P08183); assay: MDCK/MDR1 permeability and efflux; format: in vitro ADME; settings: dog
T2 construct: expressed in transfected cells; host or cells: MDCK (Madin Darby canine kidney) cells
T2 sequence (P08183 whole entry): as above
From the text: as §2

[5] = target: T3, hERG potassium channels (KCNH2, expressed in HEK293 cells) (Homo sapiens, UniProt Q12809); assay: hERG inhibition; format: cell-based; settings: supplement
T3 construct: expressed in transfected cells
T3 sequence (Q12809 whole entry): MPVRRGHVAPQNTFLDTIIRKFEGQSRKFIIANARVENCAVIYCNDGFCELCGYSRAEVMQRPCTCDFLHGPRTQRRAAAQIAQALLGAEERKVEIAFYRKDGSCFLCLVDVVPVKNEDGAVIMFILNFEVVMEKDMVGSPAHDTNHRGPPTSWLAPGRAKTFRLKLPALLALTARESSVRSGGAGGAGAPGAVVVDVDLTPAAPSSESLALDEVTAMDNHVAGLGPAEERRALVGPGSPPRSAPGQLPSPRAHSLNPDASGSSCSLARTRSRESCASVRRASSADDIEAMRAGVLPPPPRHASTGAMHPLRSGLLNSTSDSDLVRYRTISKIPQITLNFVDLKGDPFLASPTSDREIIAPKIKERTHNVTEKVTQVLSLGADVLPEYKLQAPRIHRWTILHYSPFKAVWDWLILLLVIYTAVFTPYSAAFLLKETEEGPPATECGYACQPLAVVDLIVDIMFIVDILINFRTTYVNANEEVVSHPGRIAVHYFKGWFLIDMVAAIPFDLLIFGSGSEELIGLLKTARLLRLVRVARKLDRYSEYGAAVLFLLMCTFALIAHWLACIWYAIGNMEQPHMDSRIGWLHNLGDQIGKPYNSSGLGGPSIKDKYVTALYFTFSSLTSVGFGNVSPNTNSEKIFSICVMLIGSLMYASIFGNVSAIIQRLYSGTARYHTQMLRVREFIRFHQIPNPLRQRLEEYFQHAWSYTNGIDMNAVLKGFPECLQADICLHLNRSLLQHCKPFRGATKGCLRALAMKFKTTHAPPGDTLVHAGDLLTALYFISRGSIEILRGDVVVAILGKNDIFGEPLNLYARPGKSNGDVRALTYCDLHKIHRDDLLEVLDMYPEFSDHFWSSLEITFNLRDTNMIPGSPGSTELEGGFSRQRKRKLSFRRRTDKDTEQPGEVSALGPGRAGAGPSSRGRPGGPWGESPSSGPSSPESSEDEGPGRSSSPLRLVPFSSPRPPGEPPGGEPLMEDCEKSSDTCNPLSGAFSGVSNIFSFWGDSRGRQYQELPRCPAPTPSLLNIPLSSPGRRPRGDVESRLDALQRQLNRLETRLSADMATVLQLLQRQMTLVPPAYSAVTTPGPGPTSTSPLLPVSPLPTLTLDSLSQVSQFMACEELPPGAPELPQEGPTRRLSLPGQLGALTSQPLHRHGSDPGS

[6] = system: L. sigmodontis adult worms; assay: In vivo efficacy, L. sigmodontis-infected jirds; set-up: species or system jird (Meriones unguiculatus); settings: 2 mg/kg QD 5d SC
[7] = system: L. sigmodontis adult worms; settings: mouse, in vivo
[8] = Liver S9 metabolic stability assay, rat; format: in vitro ADME; settings: 3 μM, 60 min
Method in brief: (§3)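 Rat and human liver S9 (0.75 and 1.2 mg/ml) with 1 mM NADPH, 0.5 mM UDPGA, 2.5 mM GSH, 0.05 mg/ml PAPS, 3µM substrate, 60 min at 37 °C in Tris/MgCl2 pH 7.4. Mouse microsomes 0.3 mg/mL, 1 mM NADPH, 3µM, 30 min, phosphate pH 7.4. LC-MS/MS, % remaining, triplicate.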

[9] = Liver S9 metabolic stability assay, human; format: in vitro ADME; settings: 3 μM, 60 min
Method in brief: as §3

Mouse pharmacokinetics = format: in vivo; settings: male CD-1 mouse, PO 30 mg/kg suspension
From the text: All animal experiments were approved by the Institutional Animal Care and Use Committee (IACUC) of Bristol Myers Squibb.

THLE-2 cells = assay: THLE-2 cytotoxicity assay (ATP); settings: Homo sapiens, THLE-2, 24 h, read-out: THLE IC50
Procedure: In vitro cytotoxicity of select compounds was tested in a “normal” proliferating transformed human liver epithelial (THLE-2) cell line.[35] Compounds were incubated in THLE-2 cells for 24 and 72 h, and adenosine triphosphate (ATP) levels were used as an indicator of cell viability.
THLE-2 Cytotoxicity Assay: THLE-2 cells (ATCC, catalog #CRL-2706) were plated in LHC-8 Media (Invitrogen, catalog #12679015) supplemented with fetal bovine serum (GE, catalog #SH30088.03), 70 ng/mL phosphoethanolamine (Sigma, catalog #P0503), 5 ng/mL EGF (Sigma, catalog #E9644), 1X penicillin/streptomycin (Gibco, catalog #15140148), and 1X glutamine (Invitrogen, catalog #25030024) in 384-well clear-bottom, black walled plates at a density of 3750 cells/well (15μL/well). After plating, cells were incubated overnight at 37°C in an incubator with 5% CO2 and 90% humidity. Compounds were first serially diluted in dimethyl sulfoxide then diluted in LHC-8 media growth media to 2X concentration. Cells were dosed with 15μL of each dose for final concentrations between 0.01 – 300 μM. Cells were incubated with compounds for 24 or 72 hours. Cytotoxicity was determined with Cell Titer Glo Luminescent ATP Assay (Promega, catalog #G7573) according to the manufacturer’s instructions. Tamoxifen (Sigma, catalog #BC9353476) was used as a positive control. levels at each dose were normalized to that of cells dosed with dimethyl sulfoxide vehicle alone and IC50 values were calculated from non-linear regression fits of dose-response curves plotted

[10] = system: L. sigmodontis adult worms; set-up: method as in PMID 35834918; settings: infected mice; cited from earlier work
[11] = Liver microsome metabolic stability assay, rat; format: in vitro ADME; settings: Table 1; 3 μM, 30 min
Procedure: (§4) Liver Microsome Metabolic Stability Assay: Incubations were performed at 37 °C in a Dubnoff Shaking water bath using 2 mL 96-well incubation plates. Liver microsome protein concentration was 0.3 mg/mL the final concentration of NADPH was 1 mM. Substrate concentrations are 3µM, incubation time is 30 minutes, and all tests are done in triplicate. The incubation was conducted in 200 mM Phosphate buffer containing 2 mM magnesium chloride, pH=7.4 and the total incubation volume was 0.5 mL. Samples were analyzed via LC-MS/MS and reported as percentage remaining after 30minute incubation, which can then be converted to half-life and intrinsic clearance. […]

[12] = Liver microsome metabolic stability assay, human; format: in vitro ADME; settings: 3 μM, 30 min
Procedure: as §4

[13] = Liver microsome metabolic stability assay, mouse; format: in vitro ADME; settings: Tables 2 and 3; footnote: tested in the mouse liver microsome assay; 3 μM, 30 min
Procedure: as §4

[14] = read-out: O. gutturosa EC50 μM (SD), ex vivo adult worm motility reduction, SD in brackets
[15] = supplement, read-out: measured logD
[16] = read-out: O. gutturosa EC50 (uM) motility inhibition, supplement, SD in brackets in the PDF table

CC(C)Oc1ccc(-c2nsc(Nc3ncccc3C(N)=O)n2)nc1 [Compound 59, 2-((3-(5-Isopropoxypyridin-2-yl)-1,2,4-thiadiazol-5-yl)amino)nicotinamide]
EC50 [1, 14]: 2.6 µM | EC50 [2]: 3.4 µM | solubility kinetic at 24 h [3]: 0.3 µM (≈ 0.107 µg/mL) | logD at 24 h ([4]; pH 7.4, read-out: logD): 1.6 | logD at 24 h [4, 15]: 1.6 | Papp A→B (P-glycoprotein (MDR1)): 0.79 ×10⁻⁶ cm/s | Papp A→B (P-gp (MDR1)): 0.8 ×10⁻⁶ cm/s | IC50 [5]: > 30 µM

Flubendazole [FBZ, reference compound]
adult worm burden reduction ([6]; jirds infected SC with 40 L3 larvae (Fig 2C)): -100% | reduction of adult worm burden ([6]; patent, naturally infected jirds): -100% | adult worm burden reduction [7]: -98.8% and -100%

COc1ccc(Nc2nc(-c3ccccn3)cs2)nc1 [Compound 1]
EC50 [1, 14]: 0.27 µM | EC50 [2]: 0.94 µM | Rat S9 metabolic stability [8]: 51 % remaining | Human S9 metabolic stability [9]: 59 % remaining | AUC(0-inf) (Mouse pharmacokinetics): 1.58 ± 0.27 µM·h | Cmax (Mouse pharmacokinetics): 690 ± 180 nM | Tmax (Mouse pharmacokinetics): 30 ± 0 min | IC50 (THLE-2 cells): 72.4 µM | reduction of adult L. sigmodontis worms [10]: 68%

COc1ccc(Nc2nc(-c3ccccn3)ns2)nc1 [Compound 2]
EC50 [1, 14]: 1.7 µM | EC50 [2]: 1.5 µM | solubility kinetic at 24 h [3]: 62.7 µM (≈ 17.9 µg/mL) | Rat Microsomes [11]: 78 % remaining | Human Microsomes [12]: 90 % remaining | AUC(0-inf) (Mouse pharmacokinetics): 3.61 ± 0.86 µM·h | Cmax (Mouse pharmacokinetics): 1260 ± 290 nM | Tmax (Mouse pharmacokinetics): 78 ± 30 min | IC50 (THLE-2 cells): > 300 µM

Cc1cccnc1Nc1nnc(-c2ccc(OC3CCOCC3)cn2)o1 [Compound 7, (3-Methyl-pyridin-2-yl)-{5-[5-(tetrahydro-pyran-4-yloxy)-pyridin-2-yl]-[1,3,4]oxadiazol-2-yl}-amine]
EC50 [1, 14]: 0.94 µM | EC50 [1, 16]: 0.935 µM | EC50 [2]: 6.5 µM | solubility kinetic at 24 h [3]: 12.8 µM (≈ 4.52 µg/mL) | logD at 24 h [4, 15]: 1.55 | Rat Microsomes [11]: 39 % remaining | Human Microsomes [12]: 83 % remaining

Cc1cccnc1Nc1nsc(-c2ccc(OC3CCOCC3)cn2)n1 [Compound 5, N-(3-Methylpyridin-2-yl)-5-(5-((tetrahydro-2h-pyran-4-yl)oxy)pyridin-2-yl)-1,2,4-thiadiazol-3-amine]
solubility kinetic at 24 h [3]: 182 µM (≈ 67.2 µg/mL) | logD at 24 h [4, 15]: 2.15 | Rat Microsomes [11]: 89 % remaining | Human Microsomes [12]: 77 % remaining

Cc1cccnc1Nc1nc(-c2ncc(OC(C)C)cn2)ns1 [Compound 40, 3-(5-Isopropoxypyrimidin-2-yl)-N-(3-methylpyridin-2-yl)-1,2,4-thiadiazol-5-amine]
EC50 [1, 14]: 2.35 µM | EC50 [2]: 2.9 µM | solubility kinetic at 24 h [3]: 12.3 µM (≈ 4.04 µg/mL) | logD at 24 h ([4]; pH 7.4, read-out: logD): 2.9 | logD at 24 h [4, 15]: 2.9 | Human Microsomes [12]: 96^c % remaining | Rat Microsomes [13]: 90^c % remaining

Cc1cccnc1Nc1nnc(-c2ccc(OC3CCOCC3)cn2)s1 [Compound 4, 3-Methyl-N-{5-[5-(oxan-4-yloxy)pyridin-2-yl]-1,3,4-thiadiazol-2-yl}pyridin-2-amine]
EC50 [1, 14]: 2.6 µM | EC50 [1, 16]: > 12 µM | EC50 [2]: 2.8 µM | solubility kinetic at 24 h [3]: 0.4 µM (≈ 0.148 µg/mL) | logD at 24 h [4, 15]: 2.7 | Rat Microsomes [11]: 89 % remaining | Human Microsomes [12]: 100 % remaining
